SMILES strings stand for the structures. A value given as a limit tells only on which side of the number the result lay.

One experiment has as its system A549 cells. The experiment is described as follows: in vitro antiproliferation assay, A549 (lung). It is filed as cell-based. Particulars: in vitro antiproliferation, A549 (lung) cells. The method in brief: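 IC50 values came from standard antiproliferation testing in cultured tumour cells; the A549 and H1299 lines are of lung origin.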
The next experiment deals with H1299 cells. The experiment is described as follows: in vitro antiproliferation assay, H1299 (lung). In kind it is cell-based. To be noted: in vitro antiproliferation, H1299 (lung) cells. As to the method: The IC50 values of various compounds against a various different tumor cell lines were determined using standard in vitro antiproliferation assays. The tumor cell lines tested were as follows: A549 (lung); H1299 (lung), ACHN (kidney/p53 wt), CAKI (renal cell carcinoma), NCI-H460 (lung); HCT116 (colon/p53w0; HELA (cervix/p53 wt), HUH7 (liver/p53 wt), HUVEC (primary endothelial), LNCAP (prostate), HT-29 (colon); MCF-7 (breast); MCF-7 (breast/ER positive), MDA MB435S (breast); MDA MB231 (breast/ER negative), DU145 (prostate); BxPC-3 (pancreatic); SKOV-3 (ovarian); HepG2 (hepatic), NDHF primary normal human dermal fibroblast), SKMEL28 (breast/p53mut), SKMEL5 (breast/p53 wt), U20S (bone) and PC3 (prostate). […] A blank indicates the specified compound was not tested against the specified cell line.

The mark [1] stands for this setting: Table 4, compounds with no designated stereochemistry tested as racemate.

What is called IC50 is the concentration that inhibits the measured activity by half. Turning to `COc1cc(Nc2ncc(F)c(Nc3ccc4c(c3)NC(=O)C(C)(C)S4(=O)=O)n2)cc(OC)c1` [compound 263], the half-maximal inhibitory concentration (IC50) with A549 cells (setting [1]) and with H1299 cells (setting [1]) was greater than 20 µM throughout.
Regarding `Cc1cc(C)cc(Nc2ncc(F)c(Nc3ccc4c(c3)NC(=O)C(C)(C)S4(=O)=O)n2)c1` [compound 264], the results for the IC50 in the experiment with A549 cells (setting [1]) and in the experiment on H1299 cells (setting [1]) were greater than 20 µM and no more than 20 µM, respectively.
Taken in the same sequence, the figures for `COc1cc(Nc2ncc(F)c(Nc3ccc4c(c3)NC(=O)C(C)(C)S4(=O)=O)n2)cc(OC)c1OC` [compound 265] were no more than 20 µM and no more than 20 µM.
For `COc1ccc(Nc2ncc(F)c(Nc3ccc4c(c3)NC(=O)C(C)(C)S4(=O)=O)n2)cc1F` [compound 287], the IC50 in the experiment on A549 cells (setting [1]) and in the experiment on H1299 cells (setting [1]) was no more than 20 µM throughout.
As for `COc1ccc(Nc2ncc(F)c(Nc3ccc4c(c3)NC(=O)C(C)(C)S4)n2)cc1F` [compound 289], the half-maximal inhibitory concentration (IC50) in the experiment on A549 cells (setting [1]) and in the experiment on H1299 cells (setting [1]) was no more than 20 µM in each case.
Turning to `COc1ccc(Nc2ncc(F)c(Nc3ccc4c(c3)NC(=O)CS4)n2)cc1F` [compound 290], the IC50 with A549 cells (setting [1]) and in the experiment with H1299 cells (setting [1]) was no more than 20 µM throughout.
With `CNC(=O)COc1cccc(Nc2ncc(F)c(Nc3ccc4c(c3)N(C)C(=O)CO4)n2)c1` [compound 299], the concentration for half-maximal inhibition (IC50) is no more than 20 µM in the experiment with A549 cells (setting [1]) and greater than 20 µM in the experiment on H1299 cells (setting [1]).
Regarding `CC1(C)Oc2ccc(Nc3nc(Nc4cc(CO)cc(CO)c4)ncc3F)cc2NC1=O` [compound 320], the IC50 in the experiment with A549 cells (setting [1]) and in the experiment on H1299 cells (setting [1]) was no more than 20 µM throughout.
Take `COc1cc(Cl)cc(Nc2ncc(F)c(Nc3ccc4c(c3)NC(=O)C(C)(C)O4)n2)c1` [compound 321]: the IC50 in the experiment with A549 cells (setting [1]) and with H1299 cells (setting [1]) was no more than 20 µM throughout.
`COc1cc(Nc2ncc(F)c(N(C)c3ccc4c(c3)NC(=O)C(C)(C)O4)n2)cc(OC)c1` [compound 323]: the IC50 in the experiment with A549 cells (setting [1]) and in the experiment on H1299 cells (setting [1]) was no more than 20 µM each time.
Turning to `Cc1cc(C)cc(Nc2ncc(F)c(N(C)c3ccc4c(c3)N(C)C(=O)C(C)(C)O4)n2)c1` [compound 324], the values for the half-maximal inhibitory concentration (IC50) in the experiment with A549 cells (setting [1]) and in the experiment on H1299 cells (setting [1]) were no more than 20 µM and greater than 20 µM, respectively.
Taken in the same sequence, the figures for `COc1ccc(Nc2ncc(F)c(N(C)c3ccc4c(c3)N(C)C(=O)C(C)(C)O4)n2)cc1Cl` [compound 325] were no more than 20 µM and no more than 20 µM.
Turning to `COc1cc(Nc2ncc(F)c(N(C)c3ccc4c(c3)N(C)C(=O)C(C)(C)O4)n2)cc(OC)c1` [compound 326], the IC50 with A549 cells (setting [1]) and in the experiment on H1299 cells (setting [1]) was no more than 20 µM throughout.
For `COc1ccc(Nc2ncc(F)c(N(C)c3ccc4c(c3)NC(=O)C(C)(C)O4)n2)cc1Cl` [compound 327], the IC50 with A549 cells (setting [1]) and in the experiment on H1299 cells (setting [1]) was no more than 20 µM throughout.
As for `CCOC(=O)COc1cccc(Nc2ncc(F)c(Nc3ccc4c(c3)OCCO4)n2)c1` [compound 491], the IC50 was greater than 20 µM in the experiment on A549 cells (Table 5) and no more than 20 µM in the experiment on H1299 cells (Table 5).
As to `Fc1cnc(Nc2cccc(Cl)c2)nc1Nc1ccc2c(c1)OC(F)(F)O2` [compound 513], the IC50 with A549 cells (Table 5) and in the experiment with H1299 cells (Table 5) was no more than 20 µM each time.
For the compound `Fc1cnc(Nc2cccc(-c3ncco3)c2)nc1Nc1ccc2c(c1)OCCO2` [compound 515], the half-inhibitory concentration (IC50) with A549 cells (Table 5) and in the experiment with H1299 cells (Table 5) was no more than 20 µM each time.
Take `Cc1cc(O)cc(Nc2ncc(F)c(Nc3ccc4c(c3)OCCO4)n2)c1` [compound 521]: the IC50 with A549 cells (Table 5) was no more than 20 µM; with H1299 cells (Table 5) it was greater than 20 µM.
Taken in the same sequence, the figures for `Fc1cc(Nc2ncc(F)c(Nc3ccc4c(c3)OCCO4)n2)cc(C(F)(F)F)c1` [compound 522] were greater than 20 µM and greater than 20 µM.
Taken in the same sequence, the figures for `Fc1cc(F)cc(Nc2ncc(F)c(Nc3ccc4c(c3)OCCO4)n2)c1` [compound 524] were greater than 20 µM and greater than 20 µM.
Taken in the same sequence, the figures for `Fc1cnc(Nc2ccc(OC(F)F)c(Cl)c2)nc1Nc1ccc2c(c1)OCCO2` [compound 526] were no more than 20 µM and greater than 20 µM.
In the case of `Fc1cnc(Nc2cc(Cl)cc(Cl)c2)nc1Nc1ccc2c(c1)OCCO2` [compound 530], the IC50 in the experiment with A549 cells (Table 5) and in the experiment with H1299 cells (Table 5) was no more than 20 µM in each case.

For the origin of these results see US8809341B2, “2,4-pyrimidinediamine compounds and uses as anti-proliferative agents” (Rigel Pharmaceuticals, Inc., priority 2003, dated 2014).
